In assay [1] the test system is human rotavirus Wa. Put plainly: Infectivity assay for rotavirus repeated on Caco2 cells, strain Wa. The class given is cell-based. The conditions noted are these: Caco-2. The source says: The results of the antiviral assays performed treating with 25OHC and 27OHC were confirmed repeating the infectivity assays on Caco2 cells.
The subject of assay [2] is rotavirus. Put plainly: Rotavirus cell entry kinetics. It is filed as cell-based. The conditions noted are these: MA104 cells. The protocol:
To measure the entry speed of the rotavirus into the cells, confluent monolayers of MA104 cells (cultivated in plates with 96 wells) were treated with 25OHC, 27OHC or 7κC at 1.9 μM at 37° C.; after 20 hours, the cells were washed extensively with cold medium and left to cool on ice. […] The non-bound viruses were then eliminated by washing, medium was added at 37° C., and the plates were incubated at 37° C. in a humidified atmosphere. At fixed times (i.e. 0, 15, 30, 45, 60, 75 and 90 minutes after the virus-cell adhesion), the medium was extracted from the wells and the viral particles still present on the surface of the cells were eliminated by means of two rapid washing operations with EGTA 3 mM in PBS, followed by incubation in warm medium. After reaching the last time point (90 minutes from the virus-cell adhesion), the plates with 96 wells were placed in an incubator (37° C., 5% CO2), and the infection was left to proceed for a further 16 hours. The cells were then fixed and coloured as described above. The quantity of viral particles that entered the cells at each time point was compared with the quantity of virus that entered when no washing with EGTA was performed (100% entry). The ANOVA, followed by the Bonferroni test, was used to evaluate the statistical significance of the differences between the treated and non-treated samples. The significance was fixed at the level of 95%.
As a control experiment, the same treatment and infection protocol was performed on MA104 cells, cultivated in a plate with 6 wells. In this experiment, after reaching the last time point of the entry measurement (90 minutes), the cells were lysed, the proteins extracted were denatured by boiling for 5 minutes, then separated by electrophoresis on sodium dodecylsulfate gel with 12% polyacrylamide (SDS-12%PAGE) and transferred to a polyvinylidene difluoride (PVDF) membrane. The protein of the intermediate capsid VP6 was detected using the murine monoclonal antibody 2B4 (mab0036-P, CovalAb) at a dilution 1:750, followed by secondary antibody IgG-HRP (Santa Cruz Biotechnology Inc.). The actin was detected using the anti-actin murine monoclonal antibody MAB1501R (Millipore), followed by antibody IgG-HRP (Santa Cruz Biotechnology Inc.). The density of the bands was compared using the ImageJ software, and the intensity of the actin bands was used to normalize the values. The ANOVA, followed by the Bonferroni test, was used to evaluate the statistical significance of the differences between the treated and the non-treated samples. The significance was fixed at the level of 95%. The results are reported in FIG. 11 and are expressed as a percentage, comparing treated cells with cells incubated with culture medium.

For assay [3], the system named is human rotavirus HRV 248. Put plainly: Infectivity assay for rotavirus, MA104 cells, strain HRV 248.
Method: The strains of human rotavirus Wa (ATCC® VR-2018), WI61 (ATCC® VR-2551), HRV 408 (ATCC® VR-2273), HRV 248 (ATCC® VR-2274) and DS-1 (ATCC® VR-2550) were acquired from the American Tissue Culture Collection (ATCC); the viruses were activated with 5 μg/ml porcine pancreatic trypsin of type IX (Sigma, St. Louis, Mo.) for 30 minutes at 37° C. and propagated in MA104 cells using MEM containing 0.5 μg of trypsin per ml as described previously (27).
The antiviral effectiveness of the oxysterols of the invention was determined by means of infectivity inhibition assay. The assays were performed with confluent monolayers of MA104 cells seeded in plates with 96 wells, as described previously (28). […] The control samples were prepared by treating the cells with culture medium with the addition of equal volumes of ethanol. The cells were then washed with medium, and the rotavirus infection was performed at a multiplicity of infection (MOI) of 0.02. After the infection, the cells were washed with medium and incubated at 37° C. in an incubator humidified at 5% (vol/vol) CO2-95% (vol/vol) of air. After 16 hours, the infected cells were fixed with a cold acetone-methanol mixture (50:50), and the virus titres were determined by means of indirect immunocytochemistry. The inhibition of the virus infectivity was expressed as a percentage comparing the mean number of infective events in the treated and non-treated samples±the standard deviations. Where possible, the values of the oxysterol concentrations able to determine 50% or 90% of the antiviral effect (EC50 and EC90 respectively) were calculated by means of regression analysis using the dose-response curves generated by the experimental data, with the use of PRISM 5.00 (GraphPad Software, San Diego, Calif., USA).
Assay [4] deals with human papillomavirus. Put plainly: Target identification by siRNA sensitization (TISS), human papillomavirus, HeLa cells. The conditions noted are these: oxysterol at its EC50.
Method: This mechanism of action vis-à-vis the rotavirus was therefore investigated, performing a target identification assay by means of sensitization with short interfering RNA (siRNA). The Caco2 cells (for the experiments with human rotavirus) or the HeLa cells (for the experiments with human papillomavirus) were seeded in a plate with 24 wells; during seeding, the cells were transfected with siRNA specific for OSBP and VAPA (at a concentration of 20 nM). […] After one day, the medium was removed and the cells inoculated with the respective viruses in the same time, temperature and MOI conditions described in the protocols of the infectivity or neutralization assays. The number of infected cells was evaluated as described in the preceding paragraphs.

We go through one molecule from US20170137458A1, “OXYSTEROLS FOR USE IN THE TREATMENT AND PREVENTION OF DISEASES CAUSED BY VIRUSES” (priority 2014, published 2017).

The EC50 is the midpoint of the concentration-response curve. Low readings indicate an effect from little substance, high ones a need for much substance. As usually defined, the EC90 is the concentration at which the effect reaches the 90% level.

Turning to `C[C@H](CCCC(C)(C)O)[C@H]1CC[C@H]2[C@@H]3CC=C4C[C@@H](O)CC[C@]4(C)[C@H]3CC[C@]12C` [25OHC, 25-hydroxycholesterol], the EC50 in assay [1] came to 190 nM; in assay [3], 110 nM. Moreover, the EC90 in assay [1] and in assay [3] was 1260 nM each time. The “entry of the rotavirus into the cells (infective events)” value in assay [2] (1.9 μM for 20 hours, MOI 0.02) is “totally inhibit the ability of the rotavirus to penetrate into the host cells”. Moreover, the “viral antigen VP6 within the cells (Western blot)” value in assay [2] (90 minutes after virus-cell adhesion) is “significantly (p<0.05) lower quantity than the non-treated control”. The “antiviral activity in cells with OSBP silenced” value in assay [4] (OSBP siRNA 20 nM) was “higher”. Further, the “antiviral activity in cells with VAP-A silenced” value in assay [4] (VAPA siRNA 20 nM) is on record as “higher”.
